Assay [1] addresses T1, human Y5 receptor (Homo sapiens, UniProt Q15761).
T1 sequence (Q15761 1-445): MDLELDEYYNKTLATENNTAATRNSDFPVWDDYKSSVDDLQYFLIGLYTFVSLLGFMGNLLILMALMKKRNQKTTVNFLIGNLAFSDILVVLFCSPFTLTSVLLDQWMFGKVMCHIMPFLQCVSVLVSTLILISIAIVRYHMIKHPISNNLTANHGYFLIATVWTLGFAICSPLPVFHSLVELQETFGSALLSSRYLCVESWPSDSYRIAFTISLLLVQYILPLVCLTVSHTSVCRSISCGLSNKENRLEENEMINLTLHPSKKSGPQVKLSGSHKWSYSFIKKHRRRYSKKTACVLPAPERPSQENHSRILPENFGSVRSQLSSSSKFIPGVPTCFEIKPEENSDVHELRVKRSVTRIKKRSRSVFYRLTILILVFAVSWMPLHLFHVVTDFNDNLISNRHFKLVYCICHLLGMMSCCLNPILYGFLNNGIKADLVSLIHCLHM
The assay is described as follows: NPY receptor functional assay (cAMP, HEK-CNG cells, ACTOne membrane potential dye). The format is cell-based. Particulars: NPY5R pEC50, HEK-CNG cells; standard NPY; species (human or rat) not given. The text has this: (§1) The NPY family of G-protein coupled receptors include Y1, Y2, Y4, and Y5 in humans and rats. […] Following agonist binding, the receptor-G protein complex activates a downstream intracellular signaling cascade which leads to inhibition of adenylate cyclase and a reduction in intracellular cAMP levels.
(§2) HEK-CNG cells stably expressing the human or rat Y1, Y2, Y4 or Y5 receptors (Codex Biosolutions) were used to characterize the functional potency of peptide agonists using the ActOne™ membrane potential dye kit (Codex Biosolutions). In addition to each NPY receptor, each cell line encodes a proprietary exogenous Cyclic Nucleotide-Gated (CNG) channel (Codex Biosolutions). The channel is activated by elevated intracellular levels of cAMP, resulting in ion flux and cell membrane depolarization which can be detected with a calcium sensitive dye or fluorescent membrane potential (MP) dye. Cells were carried in growth media containing 90% DMEM, 10% FBS, 250 mcg/mL G418 and 1 mcg/mL puromycin for no more than 15 passages.
(§3) Prior to testing, cells were counted and dispensed at 14,000 cells per well (Y1, Y4 and Y5) or 28,000 cells per well (Y2) into black 384 well Poly-D-Lysine plates at 20 mcL per well. Covered plates were then incubated at room temperature for 30 minutes followed by an overnight incubation at 37° C. in 5% C02. The following day, media was removed and wells were washed once with 40 mcL Dulbecco's phosphate buffered saline. […] Ten microliters of experimental peptide or peptide standard was added in triplicate to wells and incubated for 50 minutes at room temperature in the dark. Following this incubation step, plates were read again as before (final read).
(§4) NPY receptor activation, leading to a reduction in intracellular cAMP levels, is detected as a decrease in isoproteranol induced fluorescent signal. Peptide standard and experimental values were initially transformed in excel using the formula: final read/initial read. Transformed values were then normalized to receptor specific standard values (1×10−13 M minimum and 1×10−7 M maximum) using the formula: (test value−standard minavg)/(standard maxavg−standard minavg)*100. […] Normalized data was analyzed from triplicate tests and used to estimate the EC50 for each test peptide on each receptor. Data was fit in GraphPad Prism software (v8.2.1) using a 3-parameter logistic curve model: Y=Bottom+(Top−Bottom)/(1+10^((LogEC50−X))). EC50 values were converted to pEC50 values using the formula: pEC50=−Log(EC50).

Assay [2] addresses T2, human Y2 receptor (Homo sapiens, UniProt P49146).
T2 sequence (P49146 1-381): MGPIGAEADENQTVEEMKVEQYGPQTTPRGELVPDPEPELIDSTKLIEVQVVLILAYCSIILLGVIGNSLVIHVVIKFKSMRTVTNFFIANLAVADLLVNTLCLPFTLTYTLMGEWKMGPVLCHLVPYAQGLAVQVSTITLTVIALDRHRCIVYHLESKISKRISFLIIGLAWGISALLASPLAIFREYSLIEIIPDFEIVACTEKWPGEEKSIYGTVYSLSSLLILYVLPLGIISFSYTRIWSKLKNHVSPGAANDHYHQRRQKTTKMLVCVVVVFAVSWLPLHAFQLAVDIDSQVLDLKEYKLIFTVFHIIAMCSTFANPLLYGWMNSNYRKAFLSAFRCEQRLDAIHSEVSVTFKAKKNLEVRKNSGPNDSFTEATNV
Described as above. As to conditions: NPY2R pEC50, HEK-CNG cells; standard PYY(3-36); species (human or rat) not given. In kind it is cell-based.
Excerpt: as §1, §2, §3, §4

The values that follow come from US12122816B2, “Long acting peptide tyrosine tyrosine (PYY) analogs and methods of use” (Intarcia Therapeutics, Inc., priority 2020, dated 2024).

Molecules are shown by their SMILES. pEC50: −log10 of the molar value. Starred links: 1 amine or outer side, 2 acyl side, 3 side chain; linkers in the order of their positions; H or OH if unused. Residues, ends and D or L forms follow the SMILES beside them. Groups on a side chain read outwards from the residue. *: point of attachment. C20 diacid = O=C(O)CCCCCCCCCCCCCCCCCCC(=O)*; γGlu = O=C(O)[C@H](CCC(=O)[*:2])N[*:1]

By pEC50 is commonly meant −log10 of the EC50, conventionally taken in molar units. Read a high pEC50 as a low EC50.

As to `CC(C)C[C@H](NC(=O)[C@H](CC(=O)O)NC(=O)[C@H](CCCCN)NC(=O)[C@H](Cc1ccc(O)cc1)NC(=O)[C@H](Cc1ccc(O)cc1)NC(=O)[C@H](CCCNC(=N)N)NC(=O)[C@H](CC(N)=O)NC(=O)[C@H](Cc1c[nH]c2ccccc12)NC(=O)[C@H](CCC(=O)O)NC(=O)[C@H](CCCCN)NC(=O)[C@@H]1CCCN1C(=O)[C@H](CO)NC(=O)[C@H](C)NC(=O)[C@H](CC(=O)O)NC(=O)[C@H](CCCCN)NC(=O)CNC(=O)[C@@H]1CCCN1C(=O)[C@H](CCCCNC(=O)CC[C@H](NC(=O)CC[C@H](NC(=O)CCCCCCCCCCCCCCCCCCC(=O)O)C(=O)O)C(=O)O)NC(=O)[C@H](CCC(=O)O)NC(=O)[C@@H]1CCCN1C(=O)[C@H](CCCCN)NC(=O)[C@@H]1CCCN1)C(=O)N[C@@H](CCCNC(=N)N)C(=O)N[C@@H](Cc1c[nH]cn1)C(=O)N[C@@H](Cc1ccc(O)cc1)C(=O)N[C@@H](CC(C)C)C(=O)N[C@@H](CC(N)=O)C(=O)N[C@@H](Cc1c[nH]c2ccccc12)C(=O)N[C@@H](CC(C)C)C(=O)N[C@H](C(=O)N[C@@H](CCCNC(=N)N)C(=O)N[C@@H](CCC(N)=O)C(=O)N[C@@H](CCCNC(=N)N)C(=O)N[C@@H](Cc1ccccc1)C(N)=O)[C@@H](C)O` [Compound A71] (H-PKPEK([γGlu-γGlu-C20 diacid])PGKDASPKEWNRYYKDLRHYLNWLTRQRF-NH2; N-terminus assumed), the pEC50 in assay [1] is 8.80; in assay [2], 10.70.

As for `CC(C)C[C@H](NC(=O)[C@H](CC(=O)O)NC(=O)[C@H](CCCCN)NC(=O)[C@H](Cc1ccc(O)cc1)NC(=O)[C@H](Cc1ccc(O)cc1)NC(=O)[C@H](CCCNC(=N)N)NC(=O)[C@H](CC(N)=O)NC(=O)[C@H](Cc1c[nH]c2ccccc12)NC(=O)[C@H](CCC(=O)O)NC(=O)[C@H](CCCCN)NC(=O)[C@@H]1CCCN1C(=O)[C@H](CO)NC(=O)[C@H](C)NC(=O)[C@H](CC(=O)O)NC(=O)[C@H](CCCCN)NC(=O)CNC(=O)[C@@H]1CCCN1C(=O)[C@H](CCCCNC(=O)CC[C@H](NC(=O)CC[C@H](NC(=O)CCCCCCCCCCCCCCCCCCC(=O)O)C(=O)O)C(=O)O)NC(=O)[C@H](CCC(=O)O)NC(=O)[C@@H]1CCCN1C(=O)[C@H](CCCCN)NC(=O)[C@@H]1CCCN1)C(=O)N[C@@H](CCCNC(=N)N)C(=O)N[C@@H](Cc1c[nH]cn1)C(=O)N[C@@H](Cc1ccc(O)cc1)C(=O)N[C@@H](CC(C)C)C(=O)N[C@@H](CC(N)=O)C(=O)N[C@@H](Cc1c[nH]c2ccccc12)C(=O)N[C@@H](CC(C)C)C(=O)N[C@H](C(=O)N[C@@H](CCCNC(=N)N)C(=O)N[C@@H](CCC(N)=O)C(=O)N[C@@H](CCCNC(=N)N)C(=O)N[C@@H](Cc1ccccc1)C(N)=O)[C@@H](C)O` [Compound A37] (H-PKPEK([γGlu-γGlu-C20 diacid])PGKDASPKEWNRYYKDLRHYLNWLTRQRF-NH2; N-terminus assumed), the pEC50 in assay [1] is 8.60; in assay [2] it was 10.80. Take `CC(C)C[C@H](NC(=O)[C@H](CC(=O)O)NC(=O)[C@H](CCCCN)NC(=O)[C@H](Cc1ccc(O)cc1)NC(=O)[C@H](Cc1ccc(O)cc1)NC(=O)[C@H](CCCNC(=N)N)NC(=O)[C@H](CO)NC(=O)[C@H](Cc1c[nH]c2ccccc12)NC(=O)[C@H](CCC(=O)O)NC(=O)[C@H](CCC(=O)O)NC(=O)[C@@H]1CCCN1C(=O)[C@H](CO)NC(=O)[C@H](C)NC(=O)[C@H](CC(=O)O)NC(=O)[C@H](CCCCNC(=O)CC[C@H](NC(=O)CC[C@H](NC(=O)CCCCCCCCCCCCCCCCCCC(=O)O)C(=O)O)C(=O)O)NC(=O)CNC(=O)[C@@H]1CCCN1C(=O)[C@H](CCCCN)NC(=O)[C@H](CCC(=O)O)NC(=O)[C@@H]1CCCN1C(=O)[C@H](CCCCN)NC(=O)[C@@H]1CCCN1)C(=O)N[C@@H](CCCNC(=N)N)C(=O)N[C@@H](Cc1c[nH]cn1)C(=O)N[C@@H](Cc1ccc(O)cc1)C(=O)N[C@@H](CC(C)C)C(=O)N[C@@H](CC(N)=O)C(=O)N[C@@H](Cc1c[nH]c2ccccc12)C(=O)N[C@@H](CC(C)C)C(=O)N[C@H](C(=O)N[C@@H](CCCNC(=N)N)C(=O)N[C@@H](CCC(N)=O)C(=O)N[C@@H](CCCNC(=N)N)C(=O)N[C@@H](Cc1ccccc1)C(N)=O)[C@@H](C)O` [Compound A75]: the pEC50 in assay [1] is 9.30.

With `CC(C)C[C@H](NC(=O)[C@H](CC(=O)O)NC(=O)[C@H](CCCCN)NC(=O)[C@H](Cc1ccc(O)cc1)NC(=O)[C@H](Cc1ccc(O)cc1)NC(=O)[C@H](CCCNC(=N)N)NC(=O)[C@H](CC(N)=O)NC(=O)[C@H](Cc1c[nH]c2ccccc12)NC(=O)[C@H](CCC(=O)O)NC(=O)[C@H](CCCCN)NC(=O)[C@@H]1CCCN1C(=O)[C@H](CO)NC(=O)[C@H](C)NC(=O)[C@H](CC(=O)O)NC(=O)[C@H](CCC(=O)O)NC(=O)CNC(=O)[C@@H]1CCCN1C(=O)[C@H](CCCCNC(=O)CC[C@H](NC(=O)CC[C@H](NC(=O)CCCCCCCCCCCCCCCCCC(=O)O)C(=O)O)C(=O)O)NC(=O)[C@H](CCC(=O)O)NC(=O)[C@@H]1CCCN1C(=O)[C@H](CCCCN)NC(=O)[C@@H]1CCCN1)C(=O)N[C@@H](CCCNC(=N)N)C(=O)N[C@@H](Cc1c[nH]cn1)C(=O)N[C@@H](Cc1ccc(O)cc1)C(=O)N[C@@H](CC(C)C)C(=O)N[C@@H](CC(N)=O)C(=O)N[C@@H](Cc1c[nH]c2ccccc12)C(=O)N[C@@H](CC(C)C)C(=O)N[C@H](C(=O)N[C@@H](CCCNC(=N)N)C(=O)N[C@@H](CCC(N)=O)C(=O)N[C@@H](CCCNC(=N)N)C(=O)N[C@@H](Cc1ccccc1)C(N)=O)[C@@H](C)O` [Compound A36], the pEC50 was 8.70 in assay [1] and 10.90 in assay [2].

Take `CC(C)C[C@H](NC(=O)[C@H](CC(=O)O)NC(=O)[C@H](CCCCN)NC(=O)[C@H](Cc1ccc(O)cc1)NC(=O)[C@H](Cc1ccc(O)cc1)NC(=O)[C@H](CCCNC(=N)N)NC(=O)[C@H](CC(N)=O)NC(=O)[C@H](Cc1c[nH]c2ccccc12)NC(=O)[C@H](CCC(=O)O)NC(=O)[C@H](CCCCNC(=O)CC[C@H](NC(=O)CC[C@H](NC(=O)CCCCCCCCCCCCCCCCCCC(=O)O)C(=O)O)C(=O)O)NC(=O)[C@@H]1CCCN1C(=O)[C@H](CO)NC(=O)[C@H](C)NC(=O)[C@H](CC(=O)O)NC(=O)[C@H](CCCCN)NC(=O)CNC(=O)[C@@H]1CCCN1C(=O)[C@H](CCCCN)NC(=O)[C@H](CCC(=O)O)NC(=O)[C@@H]1CCCN1C(=O)[C@H](CCCCN)NC(=O)[C@@H]1CCCN1)C(=O)N[C@@H](CCCNC(=N)N)C(=O)N[C@@H](Cc1c[nH]cn1)C(=O)N[C@@H](Cc1ccc(O)cc1)C(=O)N[C@@H](CC(C)C)C(=O)N[C@@H](CC(N)=O)C(=O)N[C@@H](Cc1c[nH]c2ccccc12)C(=O)N[C@@H](CC(C)C)C(=O)N[C@H](C(=O)N[C@@H](CCCNC(=N)N)C(=O)N[C@@H](CCC(N)=O)C(=O)N[C@@H](CCCNC(=N)N)C(=O)N[C@@H](Cc1ccccc1)C(N)=O)[C@@H](C)O` [Compound A70] (H-PKPEKPGKDASPK([γGlu-γGlu-C20 diacid])EWNRYYKDLRHYLNWLTRQRF-NH2; N-terminus assumed): the negative-log EC50 (pEC50) was 8.70 in assay [1] and 10.40 in assay [2].
